ChEMBL document CHEMBL6182917, “Molecular-Level Strategy from Bottom-Up to Acquire High-Efficiency Antimicrobial Peptides” (J Med Chem, 2025)
Calls of active or inactive are those of the source. The rule behind the calls is not given here.

What was measured:
Staphylococcus aureus [1] = assay: Antimicrobial activity against Staphylococcus aureus ATCC 29213 assessed as intracellular content leakage at 20 uM incubated for 2 hrs by SEM analysis; format: functional, organism-based
MC3T3-E1 [2] = assay: Cytotoxicity against mouse MC3T3-E1 cells assessed as reduction in cell viability at 2 uM incubated for 2 days by CCK-8 assay relative to control; format: toxicity, cell-based; conditions: mc3t3-e1, 48 h, time 2 day
Escherichia coli [3] = assay: Antibacterial activity against Escherichia coli ATCC 25922 incubated for 18 hrs; format: functional
[4] = Hemolytic activity in rabbit RBC assessed as hemolytic rate at 32 uM incubated for 1 hrs by spectrophotometric analysis; format: toxicity, cell-based, Oryctolagus cuniculus, Erythrocyte; conditions: red blood cells (RBC), read-out: Activity
[5] = test system: Aggregatibacter actinomycetemcomitans; assay: Antibacterial activity against Actinobacillus actinomycetemcomitans ATCC 43717 incubated for 18 hrs; format: functional
Staphylococcus aureus [6] = assay: Antibacterial activity against Methicillin resistant Staphylococcus aureus ATCC 43300 incubated for 18 hrs; format: functional
Streptococcus mutans [7] = assay: Antibacterial activity against Streptococcus mutans ATCC 25175 incubated for 18 hrs; format: functional
Streptococcus mutans [8] = assay: Antibiofilm activity against Streptococcus mutans ATCC 25175 assessed as inhibition of biofilm formation at 5 uM incubated for 48 hrs by crystal violet staining based microplate reader analysis; format: functional, organism-based
Staphylococcus aureus [9] = assay: Antibiofilm activity against Staphylococcus aureus ATCC 29213 assessed as disappearance of colony formation at 2 uM incubated for 48 hrs by crystal violet staining based microplate reader analysis; format: functional, organism-based
Staphylococcus aureus [10] = assay: Antibiofilm activity against Methicillin resistant Staphylococcus aureus ATCC 43300 assessed as reduction in colony count at 2 to 5 uM incubated for 24 hrs by CFU assay; format: functional, organism-based; conditions: dose 2-5 µM
Staphylococcus aureus [11] = assay: Antibiofilm activity against Methicillin resistant Staphylococcus aureus ATCC 43300 assessed as inhibition of biofilm formation at 5 uM incubated for 48 hrs by crystal violet staining based microplate reader analysis; format: functional, organism-based
Staphylococcus aureus [12] = assay: Bactericidal activity against Methicillin resistant Staphylococcus aureus ATCC 43300 incubated for 18 hrs; format: functional
Staphylococcus aureus [13] = assay: Antimicrobial activity against Staphylococcus aureus ATCC 29213 assessed as appearance of intracellular content in whole area at 20 uM incubated for 2 hrs by SEM analysis; format: functional, organism-based
Staphylococcus aureus [14] = assay: Antibacterial activity against Staphylococcus aureus infected in male Sprague-Dawley rat wound model assessed as wound closure at 2 uM administered every 2 days and measured on day 4 relative to control; format: functional; conditions: time 4 day
Staphylococcus aureus [15] = assay: Antimicrobial activity against Staphylococcus aureus ATCC 29213 assessed as reduction in bacterial survival at 20 uM incubated for 8 hrs by spectrophotometric analysis relative to control; format: functional
Staphylococcus aureus [16] = assay: Antibiofilm activity against Staphylococcus aureus ATCC 29213 assessed as damaged bacterial cells by measuring red fluorescence at 5 uM incubated for 12 hrs by SYTO9/PI staining based confocal laser scanning microscopic analysis; format: functional, organism-based
Staphylococcus aureus [17] = assay: Antimicrobial activity against Staphylococcus aureus ATCC 29213 assessed as reduction in bacterial survival at 5 uM incubated for 8 hrs by spectrophotometric analysis relative to control; format: functional
Staphylococcus aureus [18] = assay: Antibacterial activity against Methicillin resistant Staphylococcus aureus infected in male Sprague-Dawley rat wound model assessed as wound closure at 2 uM administered every 2 days and measured on day 7 (reference value: 66.84%); format: functional; conditions: time 7 day
Staphylococcus aureus [19] = assay: Antimicrobial activity against Staphylococcus aureus ATCC 29213 assessed as disappearance of normal shape at 20 uM incubated for 2 hrs by SEM analysis; format: functional, organism-based
MC3T3-E1 [20] = assay: Cytotoxicity against mouse MC3T3-E1 cells assessed as reduction in cell viability at > 10 uM incubated for 2 days by CCK-8 assay; format: toxicity, cell-based; conditions: mc3t3-e1, 48 h, time 2 day
[21] = test system: Aggregatibacter actinomycetemcomitans; assay: Antibiofilm activity against Actinobacillus actinomycetemcomitans ATCC 43717 assessed as inhibition of biofilm formation at 5 uM incubated for 48 hrs by crystal violet staining based microplate reader analysis; format: functional, organism-based
Staphylococcus aureus [22] = assay: Antimicrobial activity against Staphylococcus aureus ATCC 29213 assessed as reduction in bacterial survival at 5 uM incubated for 2 hrs by spectrophotometric analysis relative to control; format: functional
Staphylococcus aureus [23] = assay: Antibacterial activity against Staphylococcus aureus infected in male Sprague-Dawley rat wound model assessed as wound healing at 2 uM administered every 2 days and measured after 10 days; format: functional, organism-based; conditions: time 10.0 day
Staphylococcus aureus [24] = assay: Antimicrobial activity against Staphylococcus aureus ATCC 29213 assessed as large area of intracellular content at 20 uM incubated for 2 hrs by SEM analysis; format: functional, organism-based
Staphylococcus aureus [25] = assay: Antimicrobial activity against Staphylococcus aureus ATCC 29213 assessed as inhibition of microbial growth at 5 uM incubated for 10 hrs by spectrophotometric analysis relative to control; format: functional; design: scale not given: the % may be the effect or the level left
Staphylococcus aureus [26] = assay: Antimicrobial activity against Staphylococcus aureus ATCC 29213 assessed as appearance of damaged bacteria at 5 uM incubated for 2 hrs by SEM analysis relative to control; format: functional
Streptococcus mutans [27] = assay: Bactericidal activity against Streptococcus mutans ATCC 25175 incubated for 18 hrs; format: functional
Escherichia coli [28] = assay: Bactericidal activity against Escherichia coli ATCC 25922 incubated for 18 hrs; format: functional
[29] = test system: Aggregatibacter actinomycetemcomitans; assay: Bactericidal activity against Actinobacillus actinomycetemcomitans ATCC 43717 incubated for 18 hrs; format: functional
Staphylococcus aureus [30] = assay: Antibiofilm activity against Staphylococcus aureus ATCC 29213 assessed as damaged bacterial cells by measuring red fluorescence at 20 uM incubated for 12 hrs by SYTO9/PI staining based confocal laser scanning microscopic analysis; format: functional, organism-based
Staphylococcus aureus [31] = assay: Antimicrobial activity against Staphylococcus aureus ATCC 29213 assessed as reduction in bacterial survival at 5 uM incubated for 4 hrs by spectrophotometric analysis relative to control; format: functional
Staphylococcus aureus [32] = assay: Antibacterial activity against Methicillin resistant Staphylococcus aureus infected in male Sprague-Dawley rat wound model assessed as wound closure at 2 uM administered every 2 days and measured on day 10 (reference value: 66.84%); format: functional; conditions: time 10 day
Staphylococcus aureus [33] = assay: Antibacterial activity against Staphylococcus aureus infected in male Sprague-Dawley rat wound model assessed as wound healing with newly formed epidermal tissues at 2 uM administered every 2 days and measured after 10 days; format: functional, organism-based; conditions: time 10.0 day
Staphylococcus aureus [34] = assay: Antibiofilm activity against Staphylococcus aureus ATCC 29213 assessed as inhibition of biofilm formation at 2 uM incubated for 48 hrs by crystal violet staining based microplate reader analysis; format: functional, organism-based
Staphylococcus aureus [35] = assay: Antibacterial activity against Methicillin resistant Staphylococcus aureus ATCC 43300 assessed as reduction in bacterial growth at 2 to 5 uM; format: functional, organism-based; conditions: dose 2-5 µM
Staphylococcus aureus [36] = assay: Antimicrobial activity against Staphylococcus aureus ATCC 29213 assessed as inhibition of microbial growth at 80 uM incubated for 10 hrs by spectrophotometric analysis; format: functional, organism-based
Staphylococcus aureus [37] = assay: Antimicrobial activity against Staphylococcus aureus ATCC 29213 assessed as appearance of damaged bacteria by measuring leakage at 20 uM incubated for 2 hrs by SEM analysis; format: functional, organism-based
Staphylococcus aureus [38] = assay: Antibiofilm activity against Staphylococcus aureus ATCC 29213 assessed as increase in green fluorescence at 5 uM incubated for 12 hrs by SYTO9/PI staining based confocal laser scanning microscopic analysis; format: functional, organism-based
Staphylococcus aureus [39] = assay: Antibiofilm activity against Staphylococcus aureus ATCC 29213 assessed as biofilm eradication at 10 uM incubated for 48 hrs by crystal violet staining based microplate reader analysis relative to control; format: functional
Staphylococcus aureus [40] = assay: Antimicrobial activity against Staphylococcus aureus ATCC 29213 assessed as appearance of wrinkled bacteria by measuring leakage at 20 uM incubated for 2 hrs by SEM analysis; format: functional, organism-based
Staphylococcus aureus [41] = assay: Antibiofilm activity against Staphylococcus aureus ATCC 29213 assessed as inhibition of biofilm formation at 5 uM incubated for 48 hrs by crystal violet staining based microplate reader analysis; format: functional, organism-based
Staphylococcus aureus [42] = assay: Antimicrobial activity against Staphylococcus aureus ATCC 29213 assessed as appearance of deformed bacteria at 20 uM incubated for 2 hrs by SEM analysis; format: functional, organism-based

In the case of H-GLFDIIKKIAESF-NH2, the Activity (Staphylococcus aureus [1]) is reported as “Active”, the Activity (MC3T3-E1 [2]) is reported as 91.16% and the MIC (Escherichia coli [3]) is reported as no less than 80 µM. For the same molecule, the hemolysis at 1 h, 32 µM [4] was less than 10%, the MIC [5] was no less than 80 µM and the MIC (Staphylococcus aureus [6]) was no less than 80 µM. It also gave an MIC (Streptococcus mutans [7]) of no less than 80 µM.
For H-GLFKIIKKIAKSF-NH2, the Activity (Streptococcus mutans [8]) was “Active”, the Activity (Staphylococcus aureus [9]) was “Active” and the Activity (Staphylococcus aureus [10]) was “Active”. For the same molecule, the Activity (Staphylococcus aureus [11]) was “Active”, the MBC (Staphylococcus aureus [12]) was no more than 10 µM and the Activity (Staphylococcus aureus [13]) was “Active”. The Activity (Staphylococcus aureus [14]) was 68.16%, the Activity (Staphylococcus aureus [15]) was 6.7% and the Activity (Staphylococcus aureus [16]) was “Active”. It also gave an Activity (MC3T3-E1 [2]) of 85.49%, an Activity (Staphylococcus aureus [17]) of 8.24% and an MIC (Escherichia coli [3]) of no more than 10 µM. For the same molecule, the Activity (Staphylococcus aureus [18]) was “<=92.65%”, the hemolysis at 1 h, 32 µM [4] was less than 10% and the Activity (Staphylococcus aureus [19]) was “Active”. The Activity (MC3T3-E1 [20]) was “Toxic”, the Activity [21] was “Active” and the Activity (Staphylococcus aureus [22]) was 11.54%. The Activity (Staphylococcus aureus [23]) was “Active”, the Activity (Staphylococcus aureus [24]) was “Active” and the Activity (Staphylococcus aureus [25]) was 100%. For the same molecule, the Activity (Staphylococcus aureus [26]) was 100%, the MBC (Streptococcus mutans [27]) was no more than 10 µM and the MIC [5] was no more than 10 µM. The MBC (Escherichia coli [28]) was no more than 10 µM, the MBC [29] was no more than 10 µM and the MIC (Staphylococcus aureus [6]) was no more than 10 µM. The Activity (Staphylococcus aureus [30]) was “Active”, the Activity (Staphylococcus aureus [31]) was 8.89% and the Activity (Staphylococcus aureus [32]) was 100%. The MIC (Streptococcus mutans [7]) was no more than 10 µM, the Activity (Staphylococcus aureus [33]) was “Active” and the Activity (Staphylococcus aureus [34]) was “Active”.
In the case of `CO[C@@]1(NC(=O)Cc2cccs2)C(=O)N2C(C(=O)O)=C(COC(N)=O)CS[C@@H]21` [CEFOXITIN], the Activity (Staphylococcus aureus [11]) is reported as “Active; Weaker Inhibition Of Biofilm Observed”, the Activity (Staphylococcus aureus [14]) is reported as 66.13% and the Activity (Staphylococcus aureus [35]) is reported as “inactive”. For the same molecule, the Activity (Staphylococcus aureus [23]) was “Active”, the Activity (Staphylococcus aureus [32]) was 77.35% and the Activity (Staphylococcus aureus [33]) was “Active”.
For H-FLFDIIKKIAESG-NH2, the Activity (Staphylococcus aureus [36]) was “Active”.
With H-FGLKIIKKIAKSF-NH2 the Activity (Staphylococcus aureus [37]) was “Active”, the Activity (Staphylococcus aureus [38]) was “inactive” and the Activity (Staphylococcus aureus [15]) was 6.45%. For the same molecule, the Activity (Staphylococcus aureus [39]) was 100%, the Activity (Staphylococcus aureus [24]) was “Active” and the Activity (Staphylococcus aureus [30]) was “Active”. The Activity (Staphylococcus aureus [40]) was “Active” and the Activity (Staphylococcus aureus [41]) was “Active”.
For H-GLFDIIKKIAEFS-NH2, the Activity (Staphylococcus aureus [42]) was “Active”.
For `CCn1cc(C(=O)O)c(=O)c2cc(F)c(N3CCNCC3)cc21`, the Activity (Staphylococcus aureus [11]) was “Active; Weaker Inhibition Of Biofilm Observed” and the Activity (Staphylococcus aureus [35]) was “inactive”.
In the case of H-GLFKIIKKIAKSG-NH2, the Activity (Staphylococcus aureus [42]) is reported as “Active”.
With H-FGLDIIKKIAESF-NH2 the Activity (Staphylococcus aureus [42]) was “Active” and the Activity (Staphylococcus aureus [36]) was “Active”.
